Results published in patent US20150239889A1, “PYRAZOLOPYRIMIDINE COMPOUND” (MITSUBISHI TANABE PHARMA CORPORATION, priority 2012, published 2015).

Assays:
Hep3B cells = assay: EPO production assay (ELISA of culture supernatant); format: cell-based; settings: Homo sapiens, 3 μmol/L test compound, 48 hours, relative to control (0.1% DMSO), read-out: EPO production stimulation rate with 3 μmol/L test compound
Method: The stimulatory effect of the compound onEPO production was determined as follows using Hep3B cells.
Cells were seeded on 96 well plates at 40000 cells/well, and the plate was incubated overnight in MEM medium containing 10% fetal bovine serum (FBS) at 37° C. under 5% CO2. The next day, the medium was replaced with MEM containing 0.5% FBS, followed by addition of test compound. The test compound was dissolved in dimethyl sulfoxide and added to the cell so that the final concentration of dimethyl sulfoxide was 0.1%. After incubation for additional 48 hours, the culture supernatant was collected, and EPO contained in the supernatant was determined using ELISA kit (EPO ELISA Kit 11-693-417-001, Roche Co.). The results were expressed as stimulation rate of EPO production (fold), which was calculated as the relative value of the EPO production with 3 μmol/L of the test compound compared to the EPO production without stimulation (control).
Stimulation rate of EPO production (fold)=(EPO production with addition of test compound)/(EPO production of control)

human HIF-PHD3 = target: T1, human HIF-PHD3 (Homo sapiens, UniProt Q9H6Z9); assay: HIF-PHD inhibition assay (fluorescence polarization), human HIF-PHD3; format: biochemical; settings: 2-oxoglutaric acid 166 μmol/L
T1 construct: purchased CrystalGenomics Ltd
T1 sequence (Q9H6Z9 whole entry): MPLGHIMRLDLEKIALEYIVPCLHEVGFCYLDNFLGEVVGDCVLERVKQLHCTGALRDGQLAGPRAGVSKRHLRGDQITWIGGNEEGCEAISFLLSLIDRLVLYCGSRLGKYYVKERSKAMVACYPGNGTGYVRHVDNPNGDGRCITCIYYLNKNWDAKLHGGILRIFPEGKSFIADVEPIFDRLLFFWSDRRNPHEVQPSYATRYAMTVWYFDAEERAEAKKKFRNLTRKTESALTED
Method in brief: (§1)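 Activity was derived as the fluorescence polarization (mP) after enzyme addition minus that measured before enzyme addition. Probe bore a 5′-fluoresceinamide (FAM) label with an aminocaproic acid (ACA) linker.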

human HIF-PHD2 = target: T2, human HIF-PHD2 (Homo sapiens, UniProt Q9GZT9); assay: HIF-PHD inhibition assay (fluorescence polarization), human HIF-PHD2; format: biochemical; settings: 2-oxoglutaric acid 3.33 μmol/L
T2 construct: purchased CrystalGenomics Ltd
T2 sequence (Q9GZT9 2-426 limits assumed): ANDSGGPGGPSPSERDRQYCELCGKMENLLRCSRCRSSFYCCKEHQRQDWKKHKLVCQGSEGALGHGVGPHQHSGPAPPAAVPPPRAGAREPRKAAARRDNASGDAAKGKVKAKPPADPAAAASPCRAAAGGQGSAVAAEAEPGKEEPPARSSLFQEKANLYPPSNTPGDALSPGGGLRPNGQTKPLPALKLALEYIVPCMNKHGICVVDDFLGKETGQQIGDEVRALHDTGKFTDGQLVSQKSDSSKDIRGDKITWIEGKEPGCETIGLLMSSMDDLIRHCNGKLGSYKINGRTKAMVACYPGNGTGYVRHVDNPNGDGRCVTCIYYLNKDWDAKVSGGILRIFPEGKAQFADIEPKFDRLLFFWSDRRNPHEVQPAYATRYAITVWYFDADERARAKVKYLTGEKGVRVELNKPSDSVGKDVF
Method in brief: as §1

For `O=C(O)c1cnn(-c2nc(O)c3c(cnn3Cc3ccc(-c4cccc(F)c4F)cc3)n2)c1` [Example 76], the fold induction at 3 µM (Hep3B cells) was 6.9, the IC50 (human HIF-PHD3) was 120 nM and the IC50 (human HIF-PHD2) was 9.1 nM.
`O=C(O)c1cnn(-c2nc(O)c3c(cnn3Cc3ccc(-c4cc(F)ccc4F)cc3)n2)c1` [Example 77] was tested, and the fold induction at 3 µM (Hep3B cells) was 9.8, the IC50 (human HIF-PHD3) was 130 nM and the IC50 (human HIF-PHD2) was 8.7 nM.
Molecule `O=C(O)c1cnn(-c2nc(O)c3c(cnn3Cc3ccc(-c4ccccc4)cc3F)n2)c1` [Example 78] has a fold induction at 3 µM (Hep3B cells) of 30, an IC50 (human HIF-PHD3) of 68 nM and an IC50 (human HIF-PHD2) of 6.1 nM.
With `O=C(O)c1cnn(-c2nc(O)c3c(cnn3Cc3c(F)cc(-c4ccccc4)cc3F)n2)c1` [Example 79] the fold induction at 3 µM (Hep3B cells) was 14, the IC50 (human HIF-PHD3) was 200 nM and the IC50 (human HIF-PHD2) was 16 nM.
`O=C(O)c1cnn(-c2nc(O)c3c(cnn3Cc3ccc(-c4ccccc4F)cc3F)n2)c1` [Example 80] showed a fold induction at 3 µM (Hep3B cells) of 9.5, an IC50 (human HIF-PHD3) of 42 nM and an IC50 (human HIF-PHD2) of 8.9 nM.
`O=C(O)c1cnn(-c2nc(O)c3c(cnn3Cc3ccc(-c4c(F)cccc4F)cc3F)n2)c1` [Example 81] gave a fold induction at 3 µM (Hep3B cells) of 5.4, an IC50 (human HIF-PHD3) of 170 nM and an IC50 (human HIF-PHD2) of 35 nM.
Molecule `Cc1ccccc1-c1ccc(Cn2ncc3nc(-n4cc(C(=O)O)cn4)nc(O)c32)c(F)c1` [Example 83] has a fold induction at 3 µM (Hep3B cells) of 6.2, an IC50 (human HIF-PHD3) of 240 nM and an IC50 (human HIF-PHD2) of 33 nM.
Molecule `O=C(O)c1cnn(-c2nc(O)c3c(cnn3Cc3ccc(-c4ccccc4C(F)(F)F)cc3F)n2)c1` [Example 84] has a fold induction at 3 µM (Hep3B cells) of 4.3, an IC50 (human HIF-PHD3) of 200 nM and an IC50 (human HIF-PHD2) of 13 nM.
For `COc1ccccc1-c1ccc(Cn2ncc3nc(-n4cc(C(=O)O)cn4)nc(O)c32)c(F)c1` [Example 85], the fold induction at 3 µM (Hep3B cells) was 4, the IC50 (human HIF-PHD3) was 66 nM and the IC50 (human HIF-PHD2) was 11 nM.
`O=C(O)c1cnn(-c2nc(O)c3c(cnn3Cc3ccc(-c4ccccc4OC(F)(F)F)cc3F)n2)c1` [Example 86] was tested, and the fold induction at 3 µM (Hep3B cells) was 2.5, the IC50 (human HIF-PHD3) was 330 nM and the IC50 (human HIF-PHD2) was 21 nM.
With `N#Cc1ccccc1-c1ccc(Cn2ncc3nc(-n4cc(C(=O)O)cn4)nc(O)c32)c(F)c1` [Example 87] the fold induction at 3 µM (Hep3B cells) was 5.3, the IC50 (human HIF-PHD3) was 260 nM and the IC50 (human HIF-PHD2) was 50 nM.
For `O=C(O)c1cnn(-c2nc(O)c3c(cnn3Cc3ccc(-c4ccccc4F)cc3C(F)(F)F)n2)c1` [Example 89], the fold induction at 3 µM (Hep3B cells) was 16, the IC50 (human HIF-PHD3) was 1300 nM and the IC50 (human HIF-PHD2) was 48 nM.
For `O=C(O)c1cnn(-c2nc(O)c3c(cnn3Cc3ccc(-c4ccccc4)c(F)c3)n2)c1` [Example 91], the fold induction at 3 µM (Hep3B cells) was 8.6, the IC50 (human HIF-PHD3) was 28 nM and the IC50 (human HIF-PHD2) was 24 nM.
With `Cc1cc(Cn2ncc3nc(-n4cc(C(=O)O)cn4)nc(O)c32)ccc1-c1ccccc1F` [Example 94] the fold induction at 3 µM (Hep3B cells) was 17, the IC50 (human HIF-PHD3) was 300 nM and the IC50 (human HIF-PHD2) was 65 nM.
`COc1ccccc1-c1ccc(Cn2ncc3nc(-n4cc(C(=O)O)cn4)nc(O)c32)cc1F` [Example 95] showed a fold induction at 3 µM (Hep3B cells) of 4.2, an IC50 (human HIF-PHD3) of 86 nM and an IC50 (human HIF-PHD2) of 24 nM.
Molecule `COc1cc(Cn2ncc3nc(-n4cc(C(=O)O)cn4)nc(O)c32)ccc1-c1ccccc1F` [Example 96] has a fold induction at 3 µM (Hep3B cells) of 6.8, an IC50 (human HIF-PHD3) of 110 nM and an IC50 (human HIF-PHD2) of 13 nM.
`COc1cc(Cn2ncc3nc(-n4cc(C(=O)O)cn4)nc(O)c32)ccc1-c1c(F)cccc1F` [Example 97] showed a fold induction at 3 µM (Hep3B cells) of 5.2, an IC50 (human HIF-PHD3) of 300 nM and an IC50 (human HIF-PHD2) of 34 nM.
With `COc1cc(Cn2ncc3nc(-n4cc(C(=O)O)cn4)nc(O)c32)ccc1-c1ccccc1C` [Example 98] the fold induction at 3 µM (Hep3B cells) was 8.6, the IC50 (human HIF-PHD3) was 190 nM and the IC50 (human HIF-PHD2) was 20 nM.
`COc1ccccc1-c1ccc(Cn2ncc3nc(-n4cc(C(=O)O)cn4)nc(O)c32)cc1OC` [Example 99] showed a fold induction at 3 µM (Hep3B cells) of 3.1, an IC50 (human HIF-PHD3) of 200 nM and an IC50 (human HIF-PHD2) of 37 nM.
Work on `O=C(O)c1cnn(-c2nc(O)c3c(cnn3Cc3ccc(-c4ccccc4F)c(F)c3F)n2)c1` [Example 101] yielded a fold induction at 3 µM (Hep3B cells) of 12, an IC50 (human HIF-PHD3) of 120 nM and an IC50 (human HIF-PHD2) of 15 nM.
In the case of `Cc1ccccc1-c1ccc(Cn2ncc3nc(-n4cc(C(=O)O)cn4)nc(O)c32)cc1F` [Example 102], the fold induction at 3 µM (Hep3B cells) is reported as 9.8, the IC50 (human HIF-PHD3) is reported as 150 nM and the IC50 (human HIF-PHD2) is reported as 19 nM.
`O=C(O)c1cnn(-c2nc(O)c3c(cnn3Cc3ccc(-c4ccc(F)cc4F)nc3)n2)c1` [Example 104] gave a fold induction at 3 µM (Hep3B cells) of 5.4, an IC50 (human HIF-PHD3) of 110 nM and an IC50 (human HIF-PHD2) of 10 nM.
For `O=C(O)c1cnn(-c2nc(O)c3c(cnn3Cc3ccc(-c4cc(C(F)(F)F)ccc4F)nc3)n2)c1` [Example 105], the fold induction at 3 µM (Hep3B cells) was 9.5, the IC50 (human HIF-PHD3) was 110 nM and the IC50 (human HIF-PHD2) was 12 nM.
`Cc1ncccc1-c1ccc(Cn2ncc3nc(-n4cc(C(=O)O)cn4)nc(O)c32)cc1F` [Example 106] was tested, and the fold induction at 3 µM (Hep3B cells) was 5.2, the IC50 (human HIF-PHD3) was 28 nM and the IC50 (human HIF-PHD2) was 7.4 nM.
`C[C@H](c1ccc(-c2ccccc2)cc1)n1ncc2nc(-n3cc(C(=O)O)cn3)nc(O)c21` [Example 109] was tested, and the fold induction at 3 µM (Hep3B cells) was 20, the IC50 (human HIF-PHD3) was 260 nM and the IC50 (human HIF-PHD2) was 24 nM.
`C[C@@H](c1ccc(-c2ccccc2)cc1)n1ncc2nc(-n3cc(C(=O)O)cn3)nc(O)c21` [Example 110] showed a fold induction at 3 µM (Hep3B cells) of 56, an IC50 (human HIF-PHD3) of 63 nM and an IC50 (human HIF-PHD2) of 27 nM.
`C[C@H](c1ccc(-c2ccccc2F)cc1)n1ncc2nc(-n3cc(C(=O)O)cn3)nc(O)c21` [Example 111] was tested, and the fold induction at 3 µM (Hep3B cells) was 36, the IC50 (human HIF-PHD3) was > 1000 nM and the IC50 (human HIF-PHD2) was 25 nM.
`C[C@@H](c1ccc(-c2ccccc2F)cc1)n1ncc2nc(-n3cc(C(=O)O)cn3)nc(O)c21` [Example 112] gave a fold induction at 3 µM (Hep3B cells) of 28, an IC50 (human HIF-PHD3) of 87 nM and an IC50 (human HIF-PHD2) of 13 nM.
Work on `COc1ccccc1-c1ccc([C@H](C)n2ncc3nc(-n4cc(C(=O)O)cn4)nc(O)c32)cc1` [Example 113] yielded a fold induction at 3 µM (Hep3B cells) of 7.5, an IC50 (human HIF-PHD3) of 85 nM and an IC50 (human HIF-PHD2) of 5.3 nM.
In the case of `O=C(O)c1cnn(-c2nc(O)c3c(cnn3CCc3cccc(Cl)c3)n2)c1` [Example 114], the fold induction at 3 µM (Hep3B cells) is reported as 5.2, the IC50 (human HIF-PHD3) is reported as 300 nM and the IC50 (human HIF-PHD2) is reported as 20 nM.
For `O=C(O)c1cnn(-c2nc(O)c3c(cnn3CCc3ccc(Cl)c(Cl)c3)n2)c1` [Example 115], the fold induction at 3 µM (Hep3B cells) was 5.1, the IC50 (human HIF-PHD3) was 220 nM and the IC50 (human HIF-PHD2) was 24 nM.
`O=C(O)c1cnn(-c2nc(O)c3c(cnn3CCc3ccc4ccccc4c3)n2)c1` [Example 116] gave a fold induction at 3 µM (Hep3B cells) of 4, an IC50 (human HIF-PHD3) of 190 nM and an IC50 (human HIF-PHD2) of 21 nM.
`O=C(O)c1cnn(-c2nc(O)c3c(cnn3CCc3ccc4ccccc4n3)n2)c1` [Example 117] showed a fold induction at 3 µM (Hep3B cells) of 2, an IC50 (human HIF-PHD3) of 520 nM and an IC50 (human HIF-PHD2) of 37 nM.
For `CC(C)(Cn1ncc2nc(-n3cc(C(=O)O)cn3)nc(O)c21)c1ccc2ccccc2c1` [Example 118], the fold induction at 3 µM (Hep3B cells) was 17, the IC50 (human HIF-PHD3) was 320 nM and the IC50 (human HIF-PHD2) was 45 nM.
In the case of `CC(C)(Cn1ncc2nc(-n3cc(C(=O)O)cn3)nc(O)c21)c1ccc(Cl)cc1` [Example 120], the fold induction at 3 µM (Hep3B cells) is reported as 9.7, the IC50 (human HIF-PHD3) is reported as 890 nM and the IC50 (human HIF-PHD2) is reported as 54 nM.
`O=C(O)c1cnn(-c2nc(O)c3c(cnn3CC3(c4ccccc4)CCCCC3)n2)c1` [Example 124] gave a fold induction at 3 µM (Hep3B cells) of 3.4, an IC50 (human HIF-PHD3) of 930 nM and an IC50 (human HIF-PHD2) of 55 nM.
`Cc1c(CCn2ncc3nc(-n4cc(C(=O)O)cn4)nc(O)c32)ccc2ccccc12` [Example 126] was tested, and the fold induction at 3 µM (Hep3B cells) was 5.2, the IC50 (human HIF-PHD3) was 420 nM and the IC50 (human HIF-PHD2) was 51 nM.
For `Cc1ccc2cc(CCn3ncc4nc(-n5cc(C(=O)O)cn5)nc(O)c43)ccc2c1` [Example 127], the fold induction at 3 µM (Hep3B cells) was 17, the IC50 (human HIF-PHD3) was 62 nM and the IC50 (human HIF-PHD2) was 6.2 nM.
Molecule `CCc1ccc2cc(CCn3ncc4nc(-n5cc(C(=O)O)cn5)nc(O)c43)ccc2c1` [Example 128] has a fold induction at 3 µM (Hep3B cells) of 168, an IC50 (human HIF-PHD3) of 180 nM and an IC50 (human HIF-PHD2) of 12 nM.
